Reference: ChEMBL document CHEMBL4507311, “Data for DCP probe A-1155463” (2021)

Legend:
[1] = system: Tyrosine-protein kinase ABL1 (Homo sapiens), P00519 [F317I]; conditions: Compound concentration 1000.0 nM
[2] = system: Tyrosine-protein kinase ABL1 (Homo sapiens), P00519 [Y253F]; conditions: Compound concentration 1000.0 nM
[3] = target: Activin receptor type-2A (Homo sapiens) (UniProt P27037); conditions: Compound concentration 1000.0 nM
[4] = target: Serine/threonine-protein kinase BRSK1 (Homo sapiens) (UniProt Q8TDC3); conditions: Compound concentration 1000.0 nM
[5] = target: Calcium/calmodulin-dependent protein kinase type II subunit gamma (Homo sapiens) (UniProt Q13555); conditions: Compound concentration 1000.0 nM
[6] = target: Casein kinase II subunit alpha' (Homo sapiens) (UniProt P19784); conditions: Compound concentration 1000.0 nM
[7] = target: Serine/threonine-protein kinase DCLK2 (Homo sapiens) (UniProt Q8N568); conditions: Compound concentration 1000.0 nM
[8] = target: Discoidin domain-containing receptor 2 (Homo sapiens) (UniProt Q16832); conditions: Compound concentration 1000.0 nM
[9] = target: Ephrin type-A receptor 7 (Homo sapiens) (UniProt Q15375); conditions: Compound concentration 1000.0 nM
[10] = target: Mitogen-activated protein kinase 3 (Homo sapiens) (UniProt P27361); conditions: Compound concentration 1000.0 nM
[11] = target: Tyrosine-protein kinase Fes/Fps (Homo sapiens) (UniProt P07332); conditions: Compound concentration 1000.0 nM
[12] = system: Receptor-type tyrosine-protein kinase FLT3 (Homo sapiens), P36888 [N841I]; conditions: Compound concentration 1000.0 nM
[13] = target: Tyrosine-protein kinase FRK (Homo sapiens) (UniProt P42685); conditions: Compound concentration 1000.0 nM
[14] = target: Tyrosine-protein kinase JAK1 (Homo sapiens) (UniProt P23458); conditions: Compound concentration 1000.0 nM
[15] = system: Mast/stem cell growth factor receptor Kit (Homo sapiens), P10721 [V559D,T670I]; conditions: Compound concentration 1000.0 nM
[16] = target: Tyrosine-protein kinase Lyn (Homo sapiens) (UniProt P07948); conditions: Compound concentration 1000.0 nM
[17] = target: Mitogen-activated protein kinase kinase kinase 4 (Homo sapiens) (UniProt Q9Y6R4); conditions: Compound concentration 1000.0 nM
[18] = target: Dual specificity mitogen-activated protein kinase kinase 4 (Homo sapiens) (UniProt P45985); conditions: Compound concentration 1000.0 nM
[19] = target: Maternal embryonic leucine zipper kinase (Homo sapiens) (UniProt Q14680); conditions: Compound concentration 1000.0 nM
[20] = target: Dual specificity mitogen-activated protein kinase kinase 7 (Homo sapiens) (UniProt O14733); conditions: Compound concentration 1000.0 nM
[21] = target: Mitogen-activated protein kinase kinase kinase 11 (Homo sapiens) (UniProt Q16584); conditions: Compound concentration 1000.0 nM
[22] = target: Myosin light chain kinase family member 4 (Homo sapiens) (UniProt Q86YV6); conditions: Compound concentration 1000.0 nM
[23] = target: Serine/threonine-protein kinase 38-like (Homo sapiens) (UniProt Q9Y2H1); conditions: Compound concentration 1000.0 nM
[24] = target: Serine/threonine-protein kinase Nek10 (Homo sapiens) (UniProt Q6ZWH5); conditions: Compound concentration 1000.0 nM
[25] = target: Serine/threonine-protein kinase Nek2 (Homo sapiens) (UniProt P51955); conditions: Compound concentration 1000.0 nM
[26] = target: Serine/threonine-protein kinase Nek6 (Homo sapiens) (UniProt Q9HC98); conditions: Compound concentration 1000.0 nM
[27] = target: Phosphorylase b kinase regulatory subunit alpha, liver isoform (Homo sapiens) (UniProt P46019); conditions: Compound concentration 1000.0 nM
[28] = target: Serine/threonine-protein kinase PknB (Mycobacterium tuberculosis) (UniProt P9WI81); conditions: Compound concentration 1000.0 nM
[29] = target: Receptor-interacting serine/threonine-protein kinase 2 (Homo sapiens) (UniProt O43353); conditions: Compound concentration 1000.0 nM
[30] = target: Serine/threonine-protein kinase 33 (Homo sapiens) (UniProt Q9BYT3); conditions: Compound concentration 1000.0 nM
[31] = target: Serine/threonine-protein kinase TAO1 (Homo sapiens) (UniProt Q7L7X3); conditions: Compound concentration 1000.0 nM
[32] = target: Dual specificity testis-specific protein kinase 1 (Homo sapiens) (UniProt Q15569); conditions: Compound concentration 1000.0 nM
[33] = target: TGF-beta receptor type-1 (Homo sapiens) (UniProt P36897); conditions: Compound concentration 1000.0 nM
[34] = target: Tyrosine-protein kinase receptor TYRO3 (Homo sapiens) (UniProt Q06418); conditions: Compound concentration 1000.0 nM
[35] = target: Serine/threonine-protein kinase ULK2 (Homo sapiens) (UniProt Q8IYT8); conditions: Compound concentration 1000.0 nM
[36] = target: Phosphatidylinositol 3-kinase catalytic subunit type 3 (Homo sapiens) (UniProt Q8NEB9); conditions: Compound concentration 1000.0 nM
[37] = target: Serine/threonine-protein kinase WNK3 (Homo sapiens) (UniProt Q9BYP7); conditions: Compound concentration 1000.0 nM
[38] = target: D(1A) dopamine receptor (Homo sapiens) (UniProt P21728); conditions: Compound concentration 10.0 uM

Chain of TGF-beta receptor type-1 (Homo sapiens) (P36897 whole entry): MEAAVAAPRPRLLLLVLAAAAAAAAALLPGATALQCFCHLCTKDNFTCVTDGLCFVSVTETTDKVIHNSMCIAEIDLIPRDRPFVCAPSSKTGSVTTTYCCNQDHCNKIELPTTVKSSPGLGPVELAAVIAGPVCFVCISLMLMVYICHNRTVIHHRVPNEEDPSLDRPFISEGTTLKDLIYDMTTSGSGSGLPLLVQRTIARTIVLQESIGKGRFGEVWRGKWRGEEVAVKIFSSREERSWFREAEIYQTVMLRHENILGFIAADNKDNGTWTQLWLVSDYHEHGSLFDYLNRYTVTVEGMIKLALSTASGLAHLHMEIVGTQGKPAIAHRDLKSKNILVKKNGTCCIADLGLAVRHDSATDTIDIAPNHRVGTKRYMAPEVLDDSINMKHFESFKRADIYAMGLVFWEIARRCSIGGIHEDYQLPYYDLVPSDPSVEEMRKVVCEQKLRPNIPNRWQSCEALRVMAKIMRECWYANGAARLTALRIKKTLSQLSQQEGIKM
Chain of Serine/threonine-protein kinase Nek6 (Homo sapiens) (Q9HC98 whole entry, canonical isoform): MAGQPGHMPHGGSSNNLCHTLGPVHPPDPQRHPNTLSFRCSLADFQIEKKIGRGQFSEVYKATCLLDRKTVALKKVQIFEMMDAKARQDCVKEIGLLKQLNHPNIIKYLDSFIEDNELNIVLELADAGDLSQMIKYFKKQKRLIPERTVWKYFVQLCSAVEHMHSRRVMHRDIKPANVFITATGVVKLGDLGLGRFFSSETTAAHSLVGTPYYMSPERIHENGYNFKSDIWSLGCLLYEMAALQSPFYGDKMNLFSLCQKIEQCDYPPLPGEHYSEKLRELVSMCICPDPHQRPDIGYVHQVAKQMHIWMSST
Chain of Phosphorylase b kinase regulatory subunit alpha, liver isoform (Homo sapiens) (P46019 whole entry, canonical isoform): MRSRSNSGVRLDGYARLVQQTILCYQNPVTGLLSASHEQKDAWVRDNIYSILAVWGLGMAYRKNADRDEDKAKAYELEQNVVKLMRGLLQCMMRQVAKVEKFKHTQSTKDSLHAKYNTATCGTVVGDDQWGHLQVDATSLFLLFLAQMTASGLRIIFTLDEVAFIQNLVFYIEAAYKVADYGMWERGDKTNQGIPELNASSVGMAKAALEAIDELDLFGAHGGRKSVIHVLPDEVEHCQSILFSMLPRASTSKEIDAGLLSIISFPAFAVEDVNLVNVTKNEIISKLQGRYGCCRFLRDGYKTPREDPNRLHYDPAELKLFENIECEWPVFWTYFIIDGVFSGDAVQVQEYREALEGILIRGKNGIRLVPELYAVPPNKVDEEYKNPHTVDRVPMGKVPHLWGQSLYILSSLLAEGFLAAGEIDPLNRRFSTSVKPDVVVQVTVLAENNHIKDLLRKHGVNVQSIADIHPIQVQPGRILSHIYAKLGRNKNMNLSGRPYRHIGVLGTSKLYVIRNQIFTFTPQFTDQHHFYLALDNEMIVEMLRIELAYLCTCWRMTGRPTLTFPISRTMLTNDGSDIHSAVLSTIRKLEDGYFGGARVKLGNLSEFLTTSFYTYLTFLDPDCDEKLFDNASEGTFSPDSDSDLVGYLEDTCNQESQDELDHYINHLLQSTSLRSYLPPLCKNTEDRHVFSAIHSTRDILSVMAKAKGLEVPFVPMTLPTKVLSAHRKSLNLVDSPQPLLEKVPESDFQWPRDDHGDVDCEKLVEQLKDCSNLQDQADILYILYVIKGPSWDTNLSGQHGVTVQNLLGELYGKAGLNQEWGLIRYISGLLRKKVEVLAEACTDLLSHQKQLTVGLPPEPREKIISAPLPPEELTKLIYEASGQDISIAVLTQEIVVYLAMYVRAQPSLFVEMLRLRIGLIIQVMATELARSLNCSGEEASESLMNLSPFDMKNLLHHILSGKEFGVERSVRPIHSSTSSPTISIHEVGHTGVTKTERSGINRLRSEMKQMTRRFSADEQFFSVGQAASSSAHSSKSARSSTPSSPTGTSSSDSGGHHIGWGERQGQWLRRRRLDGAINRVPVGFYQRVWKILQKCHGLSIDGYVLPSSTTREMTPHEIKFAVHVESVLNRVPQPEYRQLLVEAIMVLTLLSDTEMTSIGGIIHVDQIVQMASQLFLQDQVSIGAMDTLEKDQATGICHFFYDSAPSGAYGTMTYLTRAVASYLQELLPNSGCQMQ
Chain of Myosin light chain kinase family member 4 (Homo sapiens) (Q86YV6 whole entry): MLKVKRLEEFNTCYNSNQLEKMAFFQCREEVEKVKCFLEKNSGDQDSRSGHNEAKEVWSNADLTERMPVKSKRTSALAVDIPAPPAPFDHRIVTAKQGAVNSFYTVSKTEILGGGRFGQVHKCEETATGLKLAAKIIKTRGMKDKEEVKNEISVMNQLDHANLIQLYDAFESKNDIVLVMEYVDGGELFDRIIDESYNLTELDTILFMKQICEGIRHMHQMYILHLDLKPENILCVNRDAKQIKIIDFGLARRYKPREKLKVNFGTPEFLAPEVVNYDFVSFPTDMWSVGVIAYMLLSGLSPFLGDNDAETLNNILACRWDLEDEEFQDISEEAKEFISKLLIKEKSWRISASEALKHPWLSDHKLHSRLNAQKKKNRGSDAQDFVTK
Chain of Dual specificity mitogen-activated protein kinase kinase 7 (Homo sapiens) (O14733 whole entry): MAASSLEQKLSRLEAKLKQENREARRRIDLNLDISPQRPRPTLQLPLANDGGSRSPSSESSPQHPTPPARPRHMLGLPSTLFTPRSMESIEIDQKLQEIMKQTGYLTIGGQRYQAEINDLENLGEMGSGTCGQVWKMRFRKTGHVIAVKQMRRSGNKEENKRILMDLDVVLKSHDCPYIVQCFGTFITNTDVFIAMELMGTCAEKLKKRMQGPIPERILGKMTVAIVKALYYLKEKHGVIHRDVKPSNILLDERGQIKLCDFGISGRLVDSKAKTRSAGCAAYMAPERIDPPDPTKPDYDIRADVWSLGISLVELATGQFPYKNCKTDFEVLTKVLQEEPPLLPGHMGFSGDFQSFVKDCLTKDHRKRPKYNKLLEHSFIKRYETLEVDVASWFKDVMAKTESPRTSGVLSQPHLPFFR
Chain of Serine/threonine-protein kinase PknB (Mycobacterium tuberculosis) (P9WI81 whole entry): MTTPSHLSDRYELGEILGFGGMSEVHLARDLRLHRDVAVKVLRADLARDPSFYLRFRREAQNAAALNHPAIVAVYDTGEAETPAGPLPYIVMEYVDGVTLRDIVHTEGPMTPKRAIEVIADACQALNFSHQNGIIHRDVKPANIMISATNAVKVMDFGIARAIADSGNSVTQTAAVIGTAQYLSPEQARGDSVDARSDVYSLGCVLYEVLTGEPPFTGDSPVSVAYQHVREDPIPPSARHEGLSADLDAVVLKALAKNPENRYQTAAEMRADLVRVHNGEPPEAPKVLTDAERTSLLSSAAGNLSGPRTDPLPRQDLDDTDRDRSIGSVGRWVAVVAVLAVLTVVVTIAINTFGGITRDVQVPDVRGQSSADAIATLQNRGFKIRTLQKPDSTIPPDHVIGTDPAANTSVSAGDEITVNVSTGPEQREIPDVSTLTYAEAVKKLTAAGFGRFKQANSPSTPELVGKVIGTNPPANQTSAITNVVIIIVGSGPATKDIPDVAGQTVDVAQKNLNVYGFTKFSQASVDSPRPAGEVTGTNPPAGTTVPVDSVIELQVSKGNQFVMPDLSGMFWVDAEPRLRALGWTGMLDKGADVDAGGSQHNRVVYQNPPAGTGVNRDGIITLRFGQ
Chain of Tyrosine-protein kinase FRK (Homo sapiens) (P42685 whole entry): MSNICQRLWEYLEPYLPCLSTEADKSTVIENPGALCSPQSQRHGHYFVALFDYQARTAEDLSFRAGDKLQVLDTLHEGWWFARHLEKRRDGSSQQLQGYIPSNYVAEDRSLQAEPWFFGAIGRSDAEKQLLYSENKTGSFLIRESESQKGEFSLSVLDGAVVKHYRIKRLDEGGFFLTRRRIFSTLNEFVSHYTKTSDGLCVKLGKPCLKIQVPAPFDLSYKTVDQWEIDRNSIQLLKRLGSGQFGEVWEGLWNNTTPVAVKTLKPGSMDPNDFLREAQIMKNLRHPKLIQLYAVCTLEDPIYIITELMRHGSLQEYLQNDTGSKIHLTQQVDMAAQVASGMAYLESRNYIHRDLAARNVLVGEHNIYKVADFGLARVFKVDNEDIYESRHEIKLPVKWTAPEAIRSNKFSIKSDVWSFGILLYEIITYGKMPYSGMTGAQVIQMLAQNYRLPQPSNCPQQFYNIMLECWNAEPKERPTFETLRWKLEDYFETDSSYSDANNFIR
Chain of Serine/threonine-protein kinase BRSK1 (Homo sapiens) (Q8TDC3 whole entry): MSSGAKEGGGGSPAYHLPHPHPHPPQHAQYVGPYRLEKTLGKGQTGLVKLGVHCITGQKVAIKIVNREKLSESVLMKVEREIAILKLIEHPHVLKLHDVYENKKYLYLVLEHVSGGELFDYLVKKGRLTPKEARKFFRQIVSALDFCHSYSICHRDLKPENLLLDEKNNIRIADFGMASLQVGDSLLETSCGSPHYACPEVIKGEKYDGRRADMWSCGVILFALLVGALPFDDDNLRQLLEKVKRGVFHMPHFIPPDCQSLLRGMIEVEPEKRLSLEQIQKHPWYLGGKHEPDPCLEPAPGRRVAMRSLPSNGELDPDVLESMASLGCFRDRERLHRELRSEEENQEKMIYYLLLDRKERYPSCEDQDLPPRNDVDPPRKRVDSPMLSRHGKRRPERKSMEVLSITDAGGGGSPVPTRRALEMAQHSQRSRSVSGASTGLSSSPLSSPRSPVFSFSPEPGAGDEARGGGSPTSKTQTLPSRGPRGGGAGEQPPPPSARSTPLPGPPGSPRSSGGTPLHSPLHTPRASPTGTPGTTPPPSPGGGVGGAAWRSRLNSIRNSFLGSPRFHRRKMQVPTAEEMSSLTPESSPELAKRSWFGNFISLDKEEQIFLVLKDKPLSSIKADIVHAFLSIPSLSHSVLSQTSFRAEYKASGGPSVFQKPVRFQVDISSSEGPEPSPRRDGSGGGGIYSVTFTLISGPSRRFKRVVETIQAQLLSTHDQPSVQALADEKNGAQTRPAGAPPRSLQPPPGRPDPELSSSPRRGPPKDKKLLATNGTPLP

CN(C)CC#Cc1ccc(OCCCc2sc(N3CCc4cccc(C(=O)Nc5nc6ccccc6s5)c4C3)nc2C(=O)O)c(F)c1 [A-1155463]
inactive: residual activity [1] 100% | residual activity [2] 93% | residual activity [3] 94% | residual activity [4] 100% | residual activity [5] 62% | residual activity [6] 100% | residual activity [7] 100% | residual activity [8] 83% | residual activity [9] 99% | residual activity [10] 96% | residual activity [11] 100% | residual activity [12] 81% | residual activity [13] 96% | residual activity [14] 100% | residual activity [15] 95% | residual activity [16] 100% | residual activity [17] 100% | residual activity [18] 100% | residual activity [19] 78% | residual activity [20] 69% | residual activity [21] 100% | residual activity [22] 99% | residual activity [23] 83% | residual activity [24] 87% | residual activity [25] 92% | residual activity [26] 100% | residual activity [27] 100% | residual activity [28] 100% | residual activity [29] 100% | residual activity [30] 100% | residual activity [31] 100% | residual activity [32] 100% | residual activity [33] 100% | residual activity [34] 94% | residual activity [35] 100% | residual activity [36] 100% | residual activity [37] 100% | inhibition [38] 24.6%
